What was measured:
[1] = system: SH-SY5Y human neuroblastoma cell line; assay: Cell toxicity study, LDH release, SH-SY5Y cells incubated 48 hours; type: cell-based; settings: 100 μM, 48 hours incubation
Description: The cell toxicity studies were performed on the SH-SY5Y human neuroblastoma cell line, incubating said cells for 48 hours with the compound under study. The cell viability was assessed by quantifying the release of lactate dehydrogenase (LDH), which is a cytoplasmic enzyme which is released into the extracellular medium when the integrity of the cytoplasmic membrane is lost.

[2] = system: rat hippocampal slices; assay: Oxygen and glucose deprivation (1 hour OGD, 2 hours reoxygenation) in hippocampal slices, LDH release; type: cell-based
Description: Male Spague Dawley strain rats (250-325 g) were used. After anaesthesia by means of an intraperitoneal injection of 60 mg/Kg sodium pentobarbital (Euta-Lender®), they were decapitated with a guillotine and the brain was extracted after a craniotomy. The brain was immediately submersed in a dissection solution, a cold (4° C.) modified Krebs-Henseleit solution at pH 7.4, the composition of which is: 120 mM NaCl, 2 mM KCl, 0.5 mM CaCl2, 26 mM NaHCO3, 10 mM MgSO4, 1.18 mM KH2PO4, 11 mM glucose and 200 mM sucrose, bubbled with 95% O2-5% CO2. The hippocampi were isolated, embedded in 2% low melting point agarose (Sigma-Aldrich), and cut into 350 μm transverse slices in a vibratome (Leica VT1000S).
After the cutting in the vibratome, the slices were transferred to a vial with sucrose-free dissection Krebs solution, bubbled with 95% O2-5% CO2 for 60 minutes (equilibrium period). […]
For the protocol of 1 hour of OGD followed by 2 hours of reoxygenation, the viability was determined by measuring the release of LDH into the extracellular medium according to the method described in Example 3. The quantification of LDH was performed in samples taken (i) after the preincubation period, (ii) after the hour of OGD and (iii) after each hour of reoxygenation (1 hour and 2 hours).

[3] = system: TNFα; assay: TNFα production in LPS-activated cerebral cortex astrocytes (RT-PCR); type: cell-based, rat; settings: 0.03 μM, simultaneous with 10 μg/mL LPS for 2 hours
Description: Newborn male rats aged 2-3 days were used. After a craniotomy, both cortices were extracted and deposited in a Petri dish with cold PBS. Under a microscope magnifying lens, the meninges of each cortex were extracted. Once clean, they were submersed in cold DMEM and a mechanical dissection was performed with a pipette. Then, the sample was centrifuged at 1,000 rpm for 5 minutes and the supernatant was decanted. The precipitate was resuspended in DMEM with 20% FBS and a mixture of antibiotics (penicillin/streptomycin). Finally, it was passed through a 70 μm filter and seeded in a 75 cm^2 flask with an aerated filter stopper. The calculation for the seeding of the cells was one flask (15 mL of medium) for every newborn used. […]
Subsequently, the medium of each flask was collected and taken to 50 mL Falcon tubes, they were centrifuged for 5 minutes at 1,000 rpm and the supernatant was decanted. The precipitate was resuspended in DMEM with 10% FBS and antibiotics and the cells were counted for their subsequent seeding.
The induction of inflammation in the astrocytes was performed by means of adding 10 μg/mL lipopolysaccharide together with the compounds to be studied (compound Ic at 0.03 μM and chondroitin sulphate at 10 μM) for 2 hours. […] The quantification was performed by the direct measurement of absorbance at 260/280 nm in a Nanodrop® spectrophotometer. […]

methyl 2-acetamido-2-deoxy-3-O-(β-D-glucopyranosyluronic acid)-4,6-di-O-sulpho-α-D-glucopyranoside, trisodium salt [compound Ic]
cell toxicity (release of LDH) [1]: did not show toxicity | protective effect against cell death (LDH release) ([2]; 1 μM, at 2 hours of reoxygenation after 1 hour OGD): 40% | effect on cell death after one hour of OGD followed by 2 hours of reoxygenation ([2]; 1 and 10 μM): reduced cell death in a concentration-dependent | reduction of the production of TNFα [3]: 75%

From patent US8785416B2, “Sulphated disaccharides for the treatment of neurodegenerative and/or neurovascular diseases” (Bioiberica, S.A., priority 2009, dated 2014)
